Key:
Assay in all cases: combination Emax (second highest fraction inhibited in the dose matrix, 72 h); higher = more inhibition; extreme values may be limits of the assay
[1] = system: AsPC-1 (Pancreatic Carcinoma)
Method in brief: (§1)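 Cell lines grown in DMEM/F12 or RPMI with 10% FBS were plated in 1536-well plates and held 24 hours at 37°C, 5% CO2 before 72 hours of exposure to two-drug dose matrices, with DMSO typically at 0.2%. CellTiter-Glo 2.0 luminescence gave viability, which was converted to inhibition. Vehicle wells were set to 0 and blank wells to 1. Combination Emax is the second-highest inhibition in the matrix, and Bliss excess is the observed combination effect minus the expected EA + EB − EA·EB, where EA and EB are the single-agent effects.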

CHL-1 (Melanoma) = system: CHL-1 (Melanoma)
Method in brief: as §1

[2] = system: CML-T1 (Chronic Myelogenous Leukemia)
Method in brief: as §1

[3] = system: COLO-684 (Endometrial Carcinoma)
Method in brief: as §1

ES-2 (Ovarian Carcinoma) = system: ES-2 (Ovarian Carcinoma)
Method in brief: as §1

[4] = system: FLO-1 (Esophageal Adenocarcinoma)
Method in brief: as §1

[5] = system: HSC-3 (Oral Cavity Carcinoma)
Method in brief: as §1

HuO-3N1 (Osteosarcoma) = system: HuO-3N1 (Osteosarcoma)
Method in brief: as §1

KYM-1 (Rhabdomyosarcoma) = system: KYM-1 (Rhabdomyosarcoma)
Method in brief: as §1

[6] = system: NCI-H1155 (Non-Small Cell Lung Carcinoma)
Method in brief: as §1

[7] = system: NCI-H1623 (Lung Adenocarcinoma)
Method in brief: as §1

[8] = system: NCI-H1755 (Lung Adenocarcinoma)
Method in brief: as §1

[9] = system: NCI-H196 (Small Cell Lung Carcinoma)
Method in brief: as §1

[10] = system: OCI-AML5 (Acute Myeloid Leukemia)
Method in brief: as §1

[11] = system: OV-90 (Ovarian Carcinoma)
Method in brief: as §1

[12] = system: OVTOKO (Ovarian Carcinoma)
Method in brief: as §1

[13] = system: PC-14 (Lung Adenocarcinoma)
Method in brief: as §1

RT4 (Bladder Carcinoma) = system: RT4 (Bladder Carcinoma)
Method in brief: as §1

[14] = system: SK-MM-2 (Plasma Cell Myeloma)
Method in brief: as §1

[15] = system: SW684 (Other Solid Carcinomas)
Method in brief: as §1

Row | Compound | combination Emax [1] | combination Emax (CHL-1 (Melanoma)) | combination Emax [2] | combination Emax [3] | combination Emax (ES-2 (Ovarian Carcinoma)) | combination Emax [4] | combination Emax [5] | combination Emax (HuO-3N1 (Osteosarcoma)) | combination Emax (KYM-1 (Rhabdomyosarcoma)) | combination Emax [6] | combination Emax [7] | combination Emax [8] | combination Emax [9] | combination Emax [10] | combination Emax [11] | combination Emax [12] | combination Emax [13] | combination Emax (RT4 (Bladder Carcinoma)) | combination Emax [14] | combination Emax [15]
1 | COc1cccc(OCCCN)c1-c1cc(Nc2cnc(C#N)cn2)n[nH]1 [Prexasertib] + Cc1cc2ncnn2cc1Nc1ncc2c(n1)n(C1CCOCC1)c(=O)n2C [AZD7648] (first compound max 1 µM, 7x7, partner max 10 µM) | 0.425 | 0.838 | 0.98 | 0.844 | 0.848 | 0.703 | 0.731 | 0.49 | 0.942 | 0.92 | 0.804 | 0.918 | 0.551 | 0.988 | 0.548 | 0.526 | 0.861 | 0.404 | 0.67 | 0.498
2 | COc1nnc2ccc(N3CCC(c4ccc(OCCN5CCN(C)C(=O)[C@H]5C)cc4)CC3)nn12 [AZD5153] + CC1(C)CCC(CN2CCN(c3ccc(C(=O)NS(=O)(=O)c4ccc(NCC5CCOCC5)c([N+](=O)[O-])c4)c(Oc4cnc5[nH]ccc5c4)c3)CC2)=C(c2ccc(Cl)cc2)C1 [Venetoclax] (first compound max 1 µM, 7x7, partner max 1 µM) | 0.176 | 0.531 | 0.443 | 0.528 | 0.546 | 0.51 | 0.69 | 0.337 | 0.859 | 0.71 | 0.419 | 0.454 | 0.32 | 1 | 0.387 | 0.507 | 0.419 | 0.483 | 1 | 0.531
3 | NC1(C(=O)N[C@@H](CCO)c2ccc(Cl)cc2)CCN(c2ncnc3[nH]ccc23)CC1 [Capivasertib] + COc1nnc2ccc(N3CCC(c4ccc(OCCN5CCN(C)C(=O)[C@H]5C)cc4)CC3)nn12 [AZD5153] (first compound max 10 µM, 7x7, partner max 1 µM) | 0.268 | 0.708 | 0.703 | 0.782 | 0.766 | 0.612 | 0.861 | 0.481 | 0.874 | 0.822 | 0.52 | 0.717 | 0.326 | 0.769 | 0.596 | 0.604 | 0.638 | 0.457 | 0.887 | 0.579
4 | Cc1c2c(nn1C)CSCc1cc(n(C)n1)CSc1cc(c3ccccc3c1)OCCCc1c(C(=O)O)n(C)c3c-2c(Cl)ccc13 [AZD5991] + CCN(CCO)CCCOc1ccc2c(Nc3cc(CC(=O)Nc4cccc(F)c4)[nH]n3)ncnc2c1 [AZD2811] (first compound max 1 µM, 7x7, partner max 1 µM) | 0.243 | 0.933 | 0.389 | 0.381 | 0.345 | 0.489 | 0.91 | 0.875 | 0.62 | 0.897 | 0.899 | 0.619 | 0.222 | 1 | 0.262 | 0.241 | 0.371 | 0.913 | 0.487 | 0.231
5 | C=CCn1c(=O)c2cnc(Nc3ccc(N4CCN(C)CC4)cc3)nc2n1-c1cccc(C(C)(C)O)n1 [AZD1775] + O=C(c1cc(Cc2n[nH]c(=O)c3ccccc23)ccc1F)N1CCN(C(=O)C2CC2)CC1 [Olaparib] (first compound max 1 µM, partner max 10 µM) | 0.29 | 0.528 | 0.962 | 0.625 | 0.622 | 0.878 | 0.268 | 0.2 | 0.563 | 0.454 | 0.605 | 0.832 | 0.536 | 0.953 | 0.559 | 0.496 | 0.887 | 0.283 | 0.705 | 0.249
6 | Cc1c2c(nn1C)CSCc1cc(n(C)n1)CSc1cc(c3ccccc3c1)OCCCc1c(C(=O)O)n(C)c3c-2c(Cl)ccc13 [AZD5991] + Cc1cc2ncnn2cc1Nc1ncc2c(n1)n(C1CCOCC1)c(=O)n2C [AZD7648] (first compound max 1 µM, 7x7, partner max 10 µM) | 0.246 | 0.346 | 0.332 | 0.315 | 0.313 | 0.489 | 0.52 | 0.85 | 0.265 | 0.257 | 0.952 | 0.418 | 0.219 | 1 | 0.257 | 0.41 | 0.27 | 0.358 | 0.375 | 0.298
7 | C[C@@H](c1ccc2nccn2c1)n1nnc2ncc(-c3cnn(C)c3)nc21 [Savolitinib] + CC1(C)CCC(CN2CCN(c3ccc(C(=O)NS(=O)(=O)c4ccc(NCC5CCOCC5)c([N+](=O)[O-])c4)c(Oc4cnc5[nH]ccc5c4)c3)CC2)=C(c2ccc(Cl)cc2)C1 [Venetoclax] (first compound max 1 µM, 7x7, partner max 1 µM) | 0.107 | 0.118 | 0.279 | 0.174 | 0.137 | 0.2 | 0.107 | 0.181 | 0.185 | 0.149 | 0.173 | 0.101 | 0.128 | 0.883 | 0.133 | 0.199 | 0.177 | 0.12 | 1 | 0.231
8 | NC1(C(=O)N[C@@H](CCO)c2ccc(Cl)cc2)CCN(c2ncnc3[nH]ccc23)CC1 [Capivasertib] + Cn1cnc2c(F)c(Nc3ccc(Br)cc3Cl)c(C(=O)NOCCO)cc21 [Selumetinib] (first compound max 10 µM, 7x7, partner max 10 µM) | 0.491 | 0.367 | 0.828 | 0.63 | 0.616 | 0.559 | 0.786 | 0.439 | 0.52 | 0.473 | 0.813 | 0.644 | 0.281 | 0.951 | 0.627 | 0.565 | 0.834 | 0.45 | 0.36 | 0.626
9 | CN(C)CCCOc1ccc(-c2ccc3ncc4c(c3c2)n(C2CCOCC2)c(=O)n4C)cn1 [AZD0156] + CCN(CCO)CCCOc1ccc2c(Nc3cc(CC(=O)Nc4cccc(F)c4)[nH]n3)ncnc2c1 [AZD2811] (first compound max 1 µM, 7x7, partner max 1 µM) | 0.0981 | 0.194 | 0.259 | 0.201 | 0.167 | 0.267 | 0.308 | 0.15 | 0.0599 | 0.377 | 0.0312 | 0.475 | 0.0373 | 0.963 | 0.143 | 0.113 | 0.202 | 0.349 | 0.248 | 0.154
10 | COc1cccc2c1C(=O)c1c(O)c3c(c(O)c1C2=O)C[C@@](O)(C(=O)CO)C[C@@H]3O[C@H]1C[C@H](N)[C@H](O)[C@H](C)O1 [Doxorubicin] + Cc1cc2ncnn2cc1Nc1ncc2c(n1)n(C1CCOCC1)c(=O)n2C [AZD7648] (first compound max 1 µM, 7x7, partner max 10 µM) | 0.267 | 0.767 | 1 | 0.627 | 0.76 | 0.927 | 0.702 | 0.81 | 0.956 | 0.916 | 0.647 | 0.776 | 0.145 | 0.988 | 0.569 | 0.216 | 0.748 | 0.867 | 0.371 | 0.556
11 | CC(=O)c1c(C)c2cnc(Nc3ccc(N4CCNCC4)cn3)nc2n(C2CCCC2)c1=O [Palbociclib] + CC1(C)CCC(CN2CCN(c3ccc(C(=O)NS(=O)(=O)c4ccc(NCC5CCOCC5)c([N+](=O)[O-])c4)c(Oc4cnc5[nH]ccc5c4)c3)CC2)=C(c2ccc(Cl)cc2)C1 [Venetoclax] (first compound max 10 µM, 7x7, partner max 1 µM) | 0.104 | 0.0898 | 0.932 | 0.193 | 0.501 | 0.495 | 0.359 | 0.146 | 0.863 | 0.241 | 0.248 | 0.477 | 0.0487 | 0.837 | 0.0192 | 0.336 | 0.204 | 0.203 | 1 | 0.147
12 | NC1(C(=O)N[C@@H](CCO)c2ccc(Cl)cc2)CCN(c2ncnc3[nH]ccc23)CC1 [Capivasertib] + C[C@@H]1COCCN1C2=NC(=NC(=C2)C3(CC3)[S@](=N)(=O)C)C4=C5C=CNC5=NC=C4 [AZD6738] (first compound max 10 µM, 7x7, partner max 10 µM) | 0.329 | 0.732 | 0.988 | 0.798 | 0.86 | 0.652 | 0.764 | 0.592 | 0.969 | 0.816 | 0.82 | 0.83 | 0.408 | 0.917 | 0.614 | 0.628 | 0.854 | 0.577 | 0.302 | 0.587
13 | COc1nnc2ccc(N3CCC(c4ccc(OCCN5CCN(C)C(=O)[C@H]5C)cc4)CC3)nn12 [AZD5153] + C[C@@H]1COCCN1C2=NC(=NC(=C2)C3(CC3)[S@](=N)(=O)C)C4=C5C=CNC5=NC=C4 [AZD6738] (first compound max 1 µM, 7x7, partner max 10 µM) | 0.367 | 0.747 | 0.976 | 0.797 | 0.877 | 0.823 | 0.845 | 0.427 | 0.962 | 0.942 | 0.672 | 0.874 | 0.329 | 0.95 | 0.563 | 0.661 | 0.85 | 0.708 | 0.917 | 0.464

Reference: the supplement of paper PMC11061612
